For orientation: IC50 means the concentration at which inhibition is half-maximal.

What all share (type): biochemical
One assay deals with T1, PDE5A (Homo sapiens, UniProt O76074).
T1 construct: they are full-length with N-terminal GST tag; GST (N); purchased BPS Biosciences 60050; host or cells: baculovirus infected Sf9 cells
The experiment in a line: PDE enzyme activity assay (HTRF cGMP), PDE5A. To be noted: recombinant enzyme; read-out: PDE5A1 inhibition (IC50). On the technique in general: TR-FRET usually uses a lanthanide donor and a delayed reading to cut background.

A further assay deals with T2, PDE9A isoform b (Homo sapiens, UniProt O76083).
T2 construct: they are full-length with N-terminal GST tag; GST (N); purchased BPS Biosciences 60090; host or cells: baculovirus infected Sf9 cells
T2 sequence (O76083 1-533 isoform O76083-2): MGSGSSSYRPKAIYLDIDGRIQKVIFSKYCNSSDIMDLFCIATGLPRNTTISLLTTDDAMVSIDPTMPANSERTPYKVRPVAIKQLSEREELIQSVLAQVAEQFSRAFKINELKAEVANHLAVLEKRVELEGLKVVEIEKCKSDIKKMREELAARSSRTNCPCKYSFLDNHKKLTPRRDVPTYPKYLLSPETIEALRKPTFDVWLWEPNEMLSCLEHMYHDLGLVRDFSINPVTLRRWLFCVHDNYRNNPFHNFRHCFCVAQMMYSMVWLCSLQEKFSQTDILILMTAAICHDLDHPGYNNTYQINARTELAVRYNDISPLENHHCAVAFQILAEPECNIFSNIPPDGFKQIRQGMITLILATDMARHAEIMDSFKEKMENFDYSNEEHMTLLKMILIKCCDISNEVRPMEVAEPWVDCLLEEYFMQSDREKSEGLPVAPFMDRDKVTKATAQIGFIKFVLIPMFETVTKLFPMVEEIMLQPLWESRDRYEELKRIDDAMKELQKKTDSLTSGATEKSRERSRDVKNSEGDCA
Nature of the assay: PDE enzyme activity assay (HTRF cGMP), PDE9A. To be noted: recombinant enzyme; read-out: PDE9A inhibition (IC50).

A further assay addresses HDAC1 (Homo sapiens, UniProt Q13547). Nature of the assay: HDAC enzyme activity assay (fluorogenic substrate), HDAC1. To be noted: recombinant enzyme; read-out: HDAC1 inhibition (IC50).
In the next assay the target is T3, HDAC2 (Homo sapiens, UniProt Q92769).
T3 construct: NM_001527; Cat. #50002) is full-length with C-terminal his tag; His (C); purchased BPS Biosciences 50002; host or cells: baculovirus infected Sf9 cells
T3 sequence (Q92769 whole entry): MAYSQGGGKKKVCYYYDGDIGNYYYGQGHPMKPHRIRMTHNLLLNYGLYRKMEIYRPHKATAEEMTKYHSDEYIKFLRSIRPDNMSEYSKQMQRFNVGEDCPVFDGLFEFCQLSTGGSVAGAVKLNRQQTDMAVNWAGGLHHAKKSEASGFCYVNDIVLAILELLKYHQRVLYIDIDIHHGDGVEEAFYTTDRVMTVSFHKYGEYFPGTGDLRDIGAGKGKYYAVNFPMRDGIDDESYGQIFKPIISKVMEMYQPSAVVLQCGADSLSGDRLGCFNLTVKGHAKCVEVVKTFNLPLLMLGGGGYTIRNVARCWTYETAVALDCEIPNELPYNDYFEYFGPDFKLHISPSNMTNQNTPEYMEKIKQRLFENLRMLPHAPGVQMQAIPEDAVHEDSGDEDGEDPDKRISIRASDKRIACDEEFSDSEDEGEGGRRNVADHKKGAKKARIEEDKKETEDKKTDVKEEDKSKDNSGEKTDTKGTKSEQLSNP
The experiment in a line: HDAC enzyme activity assay (fluorogenic substrate), HDAC2. To be noted: recombinant enzyme; read-out: HDAC2 inhibition (IC50).

The next assay deals with T4, HDAC6 (Homo sapiens, UniProt Q9UBN7).
T4 construct: BC069243; Cat. #50006) is full-length with N-terminal GST tag; GST (N); purchased BPS Biosciences 50006; host or cells: baculovirus infected Sf9 cells
T4 sequence (Q9UBN7 1-1215): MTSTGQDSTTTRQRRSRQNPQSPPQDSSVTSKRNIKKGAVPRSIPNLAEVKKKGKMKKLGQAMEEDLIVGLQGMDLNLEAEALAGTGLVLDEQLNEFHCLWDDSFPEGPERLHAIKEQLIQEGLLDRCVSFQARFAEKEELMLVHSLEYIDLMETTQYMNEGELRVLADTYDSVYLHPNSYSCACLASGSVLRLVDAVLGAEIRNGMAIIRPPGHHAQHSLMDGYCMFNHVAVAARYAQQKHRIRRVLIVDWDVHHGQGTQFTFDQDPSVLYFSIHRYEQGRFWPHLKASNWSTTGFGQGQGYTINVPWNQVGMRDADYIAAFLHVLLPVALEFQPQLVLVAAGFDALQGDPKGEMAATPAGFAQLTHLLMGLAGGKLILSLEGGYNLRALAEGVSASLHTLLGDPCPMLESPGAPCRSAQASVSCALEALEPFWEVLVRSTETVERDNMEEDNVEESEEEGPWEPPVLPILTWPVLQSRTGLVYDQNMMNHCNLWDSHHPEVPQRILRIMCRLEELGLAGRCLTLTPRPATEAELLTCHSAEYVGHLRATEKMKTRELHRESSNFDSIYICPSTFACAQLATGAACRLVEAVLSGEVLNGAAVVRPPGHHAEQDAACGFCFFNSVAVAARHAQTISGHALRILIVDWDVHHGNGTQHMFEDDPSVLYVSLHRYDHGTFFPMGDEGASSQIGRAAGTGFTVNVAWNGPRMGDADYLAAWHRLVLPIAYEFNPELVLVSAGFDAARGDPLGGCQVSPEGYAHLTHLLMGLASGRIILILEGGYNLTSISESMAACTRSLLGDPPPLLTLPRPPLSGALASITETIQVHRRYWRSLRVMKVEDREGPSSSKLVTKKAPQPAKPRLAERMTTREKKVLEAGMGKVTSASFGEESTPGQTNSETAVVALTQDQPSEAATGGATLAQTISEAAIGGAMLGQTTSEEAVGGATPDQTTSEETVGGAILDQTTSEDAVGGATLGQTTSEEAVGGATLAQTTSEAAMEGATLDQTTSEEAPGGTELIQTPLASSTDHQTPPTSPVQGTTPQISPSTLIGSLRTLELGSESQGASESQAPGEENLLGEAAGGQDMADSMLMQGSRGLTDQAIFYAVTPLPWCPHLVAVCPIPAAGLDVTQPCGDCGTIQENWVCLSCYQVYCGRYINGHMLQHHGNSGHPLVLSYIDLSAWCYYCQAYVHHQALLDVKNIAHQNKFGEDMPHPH
The experiment in a line: HDAC enzyme activity assay (fluorogenic substrate), HDAC6. To be noted: recombinant enzyme; read-out: HDAC6 inhibition (IC50).

Structures are written as SMILES.

Sequence of HDAC1 (Q13547 whole entry): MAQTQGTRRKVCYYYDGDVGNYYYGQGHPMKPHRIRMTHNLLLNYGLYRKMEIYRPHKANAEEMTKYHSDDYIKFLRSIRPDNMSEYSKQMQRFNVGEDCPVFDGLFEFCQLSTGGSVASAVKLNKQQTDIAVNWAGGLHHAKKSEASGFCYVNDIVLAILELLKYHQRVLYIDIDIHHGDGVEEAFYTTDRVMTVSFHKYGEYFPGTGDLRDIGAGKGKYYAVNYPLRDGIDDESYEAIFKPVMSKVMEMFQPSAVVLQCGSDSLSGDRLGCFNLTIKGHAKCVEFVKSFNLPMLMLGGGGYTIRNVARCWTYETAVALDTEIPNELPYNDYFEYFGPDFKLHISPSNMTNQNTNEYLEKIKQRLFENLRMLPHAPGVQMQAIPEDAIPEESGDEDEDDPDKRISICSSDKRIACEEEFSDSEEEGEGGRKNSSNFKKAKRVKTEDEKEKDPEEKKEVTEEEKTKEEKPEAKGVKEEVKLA

For the compound `CCCc1nc(C)c2c(=O)[nH]c(-c3cc(S(=O)(=O)N4CCN(CCCC(=O)NO)CC4)ccc3OCC)nn12` [Example 2-02, 4-[4-[4-ethoxy-3-(5-methyl-4-oxo-7-propyl-3H-imidazo[5,1-f][1,2,4]triazin-2-yl)phenyl]sulfonylpiperazin-1-yl]butanehydroxamic acid], the IC50 is under 10 nM at PDE5A, 10 to 1000 nM on PDE9A isoform b and 10 to 1000 nM on HDAC1.
`CC(c1nc2c(cnn2C2CCOCC2)c(=O)[nH]1)N1CC(Cc2ccc(C(=O)NO)cc2)C1` (stereo not shown) [Example 3-15]: the half-maximal inhibitory concentration (IC50) is 10 to 1000 nM at PDE9A isoform b, 1000 to 10000 nM on HDAC1, 1000 to 10000 nM at HDAC2 and 10 to 1000 nM at HDAC6.
As for `C[C@@H]1CN(Cc2ccc(C(=O)NO)cc2)C[C@H]1c1nc2c(cnn2C2CCCC2)c(=O)[nH]1` (racemic) [Example 3-11], the IC50 at PDE9A isoform b and on HDAC6 was 10 to 1000 nM in each case.
Take `CC(c1nc2c(cnn2C2CCOCC2)c(=O)[nH]1)N1CC(OC2CCN(c3ncc(C(=O)NO)cn3)CC2)C1` (stereo not shown) [Example 3-07]: the IC50 on PDE9A isoform b and on HDAC1 was 10 to 1000 nM each time.
Regarding `CC(c1nc2c(cnn2C2CCOCC2)c(=O)[nH]1)N1CC(Oc2ccc(C(=O)NO)cc2)C1` (stereo not shown) [Example 3-13], the IC50 on PDE9A isoform b is 10 to 1000 nM; at HDAC1, 10 to 1000 nM; at HDAC2 it was 1000 to 10000 nM; at HDAC6 it was 10 to 1000 nM.
With `CC(c1nc2c(cnn2C2CCOCC2)c(=O)[nH]1)N1CC(Oc2ccc(N3CCC(C(=O)NO)CC3)cc2)C1` (stereo not shown) [Example 3-05], the IC50 was 10 to 1000 nM at PDE9A isoform b and over 10000 nM at HDAC1.
Consider `CC1CN(CC2CCN(c3ncc(C(=O)NO)cn3)CC2)CC1c1nc2c(cnn2C2CCOCC2)c(=O)[nH]1` (racemic) [Example 3-02, 2-(4-((3-(4,5-Dihydro-1-(tetrahydro-2H-pyran-4-yl)-4-oxo-1H-pyrazolo[3,4-d]pyrimidin-6-yl)-4-methylpyrrolidin-1-yl)methyl)piperidin-1-yl)-N-hydroxypyrimidine-5-carboxamide], for which the IC50 at PDE5A was 1000 to 10000 nM; on PDE9A isoform b it was 10 to 1000 nM; on HDAC1, 10 to 1000 nM.
Take `CC(c1nc2c(cnn2C2CCOCC2)c(=O)[nH]1)N1CC(Oc2ccc(/C=C/C(=O)NO)cc2)C1` (stereo not shown) [Example 3-06]: the 50% inhibitory concentration (IC50) at PDE9A isoform b is under 10 nM; on HDAC1, 10 to 1000 nM.
For the compound `C[C@@H]1CN(Cc2ncc(-c3ccc(C(=O)NO)cc3)cn2)C[C@H]1c1nc2c(cnn2C2CCOCC2)c(=O)[nH]1` (racemic) [Example 3-04], the IC50 was under 10 nM on PDE9A isoform b and 10 to 1000 nM at HDAC1.
`CCCc1nc(C)c2c(=O)[nH]c(-c3cc(S(=O)(=O)Nc4ccc(/C=C/C(=O)NO)cc4)ccc3OCC)nn12` [Example 2-03]: the IC50 on PDE5A was under 10 nM; on PDE9A isoform b, 1000 to 10000 nM; on HDAC1, 10 to 1000 nM.
For `CC(c1nc2c(cnn2C2CCOCC2)c(=O)[nH]1)N1CC(Oc2ccc(-c3ccc(C(=O)NO)cc3)cc2)C1` (stereo not shown) [Example 3-03, 4-[4-[1-[1-(4-Oxo-1-tetrahydropyran-4-yl-5H-pyrazolo[3,4-d]pyrimidin-6-yl)ethyl]azetidin-3-yl]oxyphenyl]benzene carbohydroxamic acid], the IC50 on PDE5A was over 10000 nM; on PDE9A isoform b, 10 to 1000 nM; at HDAC1, 1000 to 10000 nM.
Turning to `CC(c1nc2c(cnn2C2CCOCC2)c(=O)[nH]1)N1CC(Cc2ccc(C(=O)NO)s2)C1` (stereo not shown) [Example 3-16], the IC50 at PDE9A isoform b was in the range of 10 to 1000 nM; at HDAC1, 1000 to 10000 nM; on HDAC2, 1000 to 10000 nM; on HDAC6, 1000 to 10000 nM.
In the case of `C[C@H]1CN(Cc2ccc(C(=O)NO)cc2)C[C@@H]1c1nc2c(cnn2C2CCOCC2)c(=O)[nH]1` (racemic) [Example 3-09, 4-[[(3R,4R)-3-methyl-4-(4-oxo-1-tetrahydropyran-4-yl-5H-pyrazolo[3,4-d]pyrimidin-6-yl)pyrrolidin-1-yl]methyl]benzenecarbohydroxamic acid], the half-inhibitory concentration (IC50) at PDE9A isoform b and on HDAC6 was 10 to 1000 nM in each case.
In the case of `C[C@@H]1CN(Cc2cnc(N3CCC(C(=O)NO)CC3)nc2)C[C@H]1c1nc2c(cnn2C2CCOCC2)c(=O)[nH]1` (racemic) [Example 3-08], the IC50 on PDE9A isoform b was in the range of 10 to 1000 nM; at HDAC1, 1000 to 10000 nM.
On to `O=C(NO)c1cnc(N2CCC(CN3CC(=O)N4[C@H](c5ccc6c(c5)OCO6)c5[nH]c6ccccc6c5C[C@@H]4C3=O)CC2)nc1` [Example 4-05], for which the 50% inhibitory concentration (IC50) on PDE5A is 10 to 1000 nM; at PDE9A isoform b it was over 10000 nM; at HDAC1, 10 to 1000 nM; on HDAC2, 10 to 1000 nM; at HDAC6, 10 to 1000 nM.
As to `CCCc1nc(C)c2c(=O)[nH]c(-c3cc(S(=O)(=O)N4CCN(c5ncc(C(=O)NO)cn5)CC4)ccc3OCC)nn12` [Example 2-05], the values for the IC50 at PDE5A, at PDE9A isoform b and on HDAC1 were under 10 nM, over 10000 nM and under 10 nM, respectively.
Consider `C[C@@H]1CN(Cc2ccc(C(=O)NO)s2)C[C@H]1c1nc2c(cnn2C2CCOCC2)c(=O)[nH]1` (racemic) [Example 3-10], for which the IC50 at PDE9A isoform b and at HDAC6 was 10 to 1000 nM each time.
`COc1ccc(C(=O)Nc2c(Cl)cncc2Cl)cc1OC1CCCC1` [Piclamilast, reference compound]: the IC50 at PDE5A was 1000 to 10000 nM; on PDE9A isoform b it was over 10000 nM.
As to `CCCc1nn(C)c2c(=O)[nH]c(-c3cc(S(=O)(=O)Nc4ccc(/C=C/C(=O)NO)cc4)ccc3OCC)nc12` [Example 1-03], the IC50 on PDE5A is under 10 nM; at PDE9A isoform b, 1000 to 10000 nM; on HDAC1 it was 10 to 1000 nM; at HDAC2, 10 to 1000 nM.
Turning to `CCCc1nn(C)c2c(=O)[nH]c(-c3cc(CN4CCC(C(=O)NO)CC4)ccc3OCC)nc12` [Example 1-36, 1-[[4-ethoxy-3-(1-methyl-7-oxo-3-propyl-6H-pyrazolo[4,3-d]pyrimidin-5-yl)phenyl]methyl]piperidine-4-carbohydroxamic acid], the half-inhibitory concentration (IC50) at PDE5A is 10 to 1000 nM; at HDAC1, 1000 to 10000 nM; on HDAC2, over 10000 nM; on HDAC6, 1000 to 10000 nM.
Take `CCCc1nn(C)c2c(=O)[nH]c(-c3cc(Cc4ccc(C(=O)NO)cc4OC)ccc3OCC)nc12` [Example 1-60]: the IC50 is 10 to 1000 nM on PDE5A, over 10000 nM on HDAC1, over 10000 nM on HDAC2 and over 10000 nM at HDAC6.
`CC1CN(CC2CC(C(=O)NO)C2)CC1c1nc2c(cnn2C2CCOCC2)c(=O)[nH]1` (racemic) [Example 3-12]: the IC50 is 10 to 1000 nM at PDE9A isoform b, 1000 to 10000 nM at HDAC1, over 10000 nM on HDAC2 and 1000 to 10000 nM at HDAC6.
On to `CC1CN(Cc2ccc(C(=O)NO)s2)CC1c1nc2c(cnn2C2CCCC2)c(=O)[nH]1` (racemic) [Example 3-17], for which the IC50 on PDE9A isoform b was under 10 nM; on HDAC1 it was 10 to 1000 nM; at HDAC2 it was 1000 to 10000 nM; at HDAC6 it was 10 to 1000 nM.

(Values after US9573956B2, “Compounds as dual inhibitors of phosphodiesterases and histone deacetylases” (FUNDACIÓN PARA LA INVESTIGACIÓN MÉDICA APLICADA, priority 2013, dated 2017).)
